Measurements published in patent US8957053B2, “Proliposomal testosterone formulations” (Tesorx Pharma, LLC, priority 2012, dated 2015).

Tests used:
[1] = Solubility of testosterone in various buffers; assay type: physicochemical; settings: phosphate buffer pH 6.80, 72 h at RT
Procedure: The solubility of testosterone in different media was tested. An amount of testosterone (100 mg) was added to each of four glass vials containing 10 ml of either: a) HCl buffer (pH 1.20), b) Acetate buffer (pH 4.50), c) phosphate buffer solution (PBS) pH 6.80 and d) nano pure water. These samples were subjected for shaking in a water bath for 72 h at RT. The samples were suitably diluted and analyzed by the HPLC assay method described in Comparative Example 2. Solubility of testosterone was high in phosphate buffer pH 6.80.

[2] = Solubility in SLS after sonication; assay type: physicochemical; settings: 1% w/v SLS, sonication 10 min
Procedure: Solubility of: a) 10 mg pure testosterone; and b) formulation PLF-2 equivalent to 10 mg testosterone in either 0.5%, 1%, or 2% SLS following sonication for 10 min. was determined. For these studies, 10 mg of pure testosterone was weighed and dissolved in either 100 ml of 0.5%, 1%, or 2% (w/v) SLS, respectively, in volumetric flasks. An amount of formulation PLF-2 that contained 10 mg of testosterone was weighed, and sample solutions were prepared in a similar way as that described above for the testosterone control. These solutions were subjected for sonication for 10 min in a bath sonicator. The samples were then filtered and diluted suitably in their respective concentrations of SLS. The amounts of soluble testosterone for each concentration of SLS was determined by using the HPLC assay method described in Comparative Example 2.

C[C@]12CC[C@H]3[C@@H](CCC4=CC(=O)CC[C@@]43C)[C@@H]1CC[C@@H]2O [testosterone]
Solubility of testosterone [1]: high | testosterone solubility [2]: high testosterone solubility
